Source: a melting point compilation (Tetko et al.; mined from patent text by program, amines drawn as free bases though some values may be those of a salt)

SMILES	melting point [°C]
COc1ccc(-c2cc3cc(F)c(F)cc3[nH]2)cc1NS(=O)(=O)c1cc(Cl)cc(Cl)c1	217 to 219
N#CC1=C(C#N)Sc2nc3cc(C#N)ccc3nc2S1	218 to 220
NS(=O)(=O)C=C(c1ccccc1)c1ccccc1	134 to 135
O=c1ccsc2c3ccccc3n(-c3ccccc3[N+](=O)[O-])c12	207 to 208
Clc1nccc2[nH]cnc12	100 to 102
Cc1cc(C)cc(S(=O)c2cccc(F)c2C#N)c1 (stereo not drawn)	146 to 147
COC(=O)N1CC1C(N)=O (stereo not drawn)	117 to 120
CCOC(=O)CCc1ccnc(O)c1	73 to 76.5
O=C(O)c1ccc(C(=O)O)c(OC(F)(F)C(F)OC(F)(F)C(F)(OC(F)(F)C(F)(F)C(F)(F)F)C(F)(F)F)c1 (stereo not drawn)	236 to 239
CC1(C)COC(CCCc2ccc(NC=NO)cc2)OC1	138 to 140
CC(C)(C(=O)c1ccccc1OCC(=O)O)N1CCN(c2ccncc2)CC1	278 to 279
C=C1CCC2C3CCC4CC(O)C(OCC)CC4(C)C3C(=NO)CC12C (stereo not drawn)	97 to 99
O=C(O)c1cc2ccccc2cc1NC(=O)C(CS)Cc1ccccc1 (stereo not drawn)	180 to 182
COCOc1ccc(C(=O)Cn2c(-c3nonc3N)nc3ccccc32)cc1OC	190
O=C1c2ccccc2C(=O)N1OCc1c(Cl)cccc1Cl	201 to 206
NC(=O)Cc1nn(-c2ccccn2)c2[nH]c3ccccc3c(=O)c12	302 to 305
CCOC(=O)c1cn2c3c(c(F)c(F)c(F)c3c1=O)CCN2C	236 to 240
CCCC(Cn1cncn1)(OCC)c1ccc(Cl)cc1Cl (stereo not drawn)	67
CNC(=O)c1ccccc1Nc1nc(Nc2ccc3c(c2)CN(CCOC)CCS3)ncc1Cl	176 to 177
O=C(N[C@@H](Cc1c[nH]c2ccccc12)C(=O)O)c1ccc([N+](=O)[O-])cc1	115 to 117
CN1CCC2(CC1)SC(C(C(=O)OC(C)(C)C)N1C(=O)c3ccccc3C1=O)NC2C(=O)OCc1ccccc1 (stereo not drawn)	173 to 175
NC(=O)CN1CCC(c2nn(-c3ccc(C(F)(F)F)cc3)c3cc(F)ccc23)CC1	174 to 176
CC1(C)OC[C@H]([C@@H](CS(=O)(=O)c2ccc(Oc3ccc(C(F)(F)F)cc3)cc2)N(O)C=O)O1	141 to 143
N#Cc1ccc(OCC(O)CCCl)cc1 (stereo not drawn)	78 to 80

SMILES	melting point [°C]
COCCN1CC(=O)C(C#N)=C1C#N	108 to 110
COC(=O)c1c(C)nc2cccc(C)c2c1NCc1ccc(Br)cc1	150
COC(=O)c1cccc(N)c1NCc1ccc(-c2ccccc2C#N)cc1	110 to 111
Cc1noc(NS(=O)(=O)c2ccccc2-c2ccc(-c3ncco3)cc2CN2CCc3ccccc3C2=O)c1C	127 to 135
NS(=O)(=O)c1ccc(-c2coc(=O)n2-c2ccc(F)cc2)cc1	211 to 213
CCc1[nH]c2ccc(OC)cc2c1C=O	211 to 212
N#Cc1ccc(Cl)cc1NC(=O)c1ccc(Br)cc1	151 to 152
CC(=O)OC1CSC(Oc2ccc(-c3cccnc3)nc2)C(OC(C)=O)C1OC(C)=O (stereo not drawn)	196
COC1=CC(=O)c2c(c(COc3cc(C=Cc4cc(OC)c(OC)c(OC)c4)ccc3OC)c(C)n2C)C1=O	192 to 194
CC(C)OC(=O)c1cc(-c2nn(C)c(C(F)(F)F)c2C=O)c(F)cc1Cl	90
Cc1ccccc1C(C)Oc1cc(OCc2ccsc2)ccc1C(=O)CC(=O)C(=O)O (racemic)	124 to 126
CNC(=O)c1ccc(C=CC(=O)NCC(=O)N(C)c2ccc(C)c(COc3cccc4c3nc(SC)n4C)c2C)cc1	224 to 225
COc1ccc(Cl)c([N+](=O)[O-])c1Cl	97 to 99
OC1Cc2ccc(F)cc2Sc2ccc(I)cc21 (stereo not drawn)	162
CNC(=S)NN=C(CCCNC(=O)c1ccccc1)c1ccccc1	114 to 118
CC(C)(C)CC(=O)N[C@H]1CC[C@H](CCN2CCN(c3nccc4c3CCO4)CC2)CC1	192
CC(=O)c1ccc(NC(=O)C=C(c2ccc(Cl)cc2)c2ccc(Cl)cc2)cc1	213 to 215
C[Si](C)(O[Si](C)(C)c1cccnc1F)c1cccnc1F	41 to 42
Fc1ccc(F)c(CN2CCNc3ncc(I)cc32)c1	175
CC1Oc2c(cc(Cl)cc2C(=O)O)NC1=O (stereo not drawn)	319 to 320
COc1cc(CC(=O)NCCCOc2ccc(C)c(C)c2)ccc1OCCN	103 to 106
O=[N+]([O-])c1ccc2onc(-c3ccccc3O)c2c1	172 to 176
O=[N+]([O-])c1ccc(Cl)cc1NC12CC3CC(CC(C3)C1)C2	146
Cc1ccnc(N2CCN(CCc3c(C)n4c5c(cc([N+](=O)[O-])cc35)CCC4)CC2)c1	230
